Assay results reported in article PMC11003488 (Journal of Enzyme Inhibition and Medicinal Chemistry, 2023).

Assays:
[1] = tested on: CCRF-CEM; experiment: NCI-60 SRB growth inhibition, one-dose and five-dose; type: cell-based; conditions: Homo sapiens
[2] = tested on: HL-60(TB); experiment: cells; type: cell-based; conditions: Homo sapiens
[3] = tested on: K-562; experiment: NCI-60 SRB growth inhibition, one-dose and five-dose; type: cell-based; conditions: Homo sapiens
[4] = tested on: MOLT-4; experiment: as above; type: cell-based; conditions: Homo sapiens
[5] = tested on: SR; experiment: as above; type: cell-based; conditions: Homo sapiens
[6] = tested on: A549/ATCC; experiment: as above; type: cell-based; conditions: Homo sapiens
[7] = tested on: EKVX; experiment: as above; type: cell-based; conditions: Homo sapiens
[8] = tested on: HOP-62; experiment: as above; type: cell-based; conditions: Homo sapiens
[9] = tested on: HOP-92; experiment: as above; type: cell-based; conditions: Homo sapiens
[10] = tested on: NCI-H226; experiment: as above; type: cell-based; conditions: Homo sapiens
[11] = tested on: NCI-H522; experiment: as above; type: cell-based; conditions: Homo sapiens
[12] = tested on: COLO 205; experiment: as above; type: cell-based; conditions: Homo sapiens
[13] = tested on: HCC-2998; experiment: as above; type: cell-based; conditions: Homo sapiens
[14] = tested on: HCT-116; experiment: as above; type: cell-based; conditions: Homo sapiens
[15] = tested on: HCT-15; experiment: as above; type: cell-based; conditions: Homo sapiens
[16] = tested on: KM12; experiment: as above; type: cell-based; conditions: Homo sapiens
[17] = tested on: SF-268; experiment: as above; type: cell-based; conditions: Homo sapiens
[18] = tested on: SF-539; experiment: as above; type: cell-based; conditions: Homo sapiens
[19] = tested on: SNB-19; experiment: as above; type: cell-based; conditions: Homo sapiens
[20] = tested on: U251; experiment: as above; type: cell-based; conditions: Homo sapiens
[21] = tested on: LOX IMVI; experiment: as above; type: cell-based; conditions: Homo sapiens
[22] = tested on: MALME-3M; experiment: as above; type: cell-based; conditions: Homo sapiens
[23] = tested on: MDA-MB-435; experiment: as above; type: cell-based; conditions: Homo sapiens
[24] = tested on: SK-MEL-2; experiment: as above; type: cell-based; conditions: Homo sapiens
[25] = tested on: SK-MEL-28; experiment: as above; type: cell-based; conditions: Homo sapiens
[26] = tested on: SK-MEL-5; experiment: as above; type: cell-based; conditions: Homo sapiens
[27] = tested on: IGROV1; experiment: as above; type: cell-based; conditions: Homo sapiens
[28] = tested on: OVCAR-3; experiment: as above; type: cell-based; conditions: Homo sapiens
[29] = tested on: OVCAR-4; experiment: as above; type: cell-based; conditions: Homo sapiens
[30] = tested on: OVCAR-5; experiment: as above; type: cell-based; conditions: Homo sapiens
[31] = tested on: OVCAR-8; experiment: as above; type: cell-based; conditions: Homo sapiens
[32] = tested on: A498; experiment: as above; type: cell-based; conditions: Homo sapiens
[33] = tested on: CAKI-1; experiment: as above; type: cell-based; conditions: Homo sapiens
[34] = tested on: RXF 393; experiment: as above; type: cell-based; conditions: Homo sapiens
[35] = tested on: PC-3; experiment: as above; type: cell-based; conditions: Homo sapiens
[36] = tested on: DU-145; experiment: as above; type: cell-based; conditions: Homo sapiens
[37] = tested on: MCF7; experiment: as above; type: cell-based; conditions: Homo sapiens
[38] = tested on: HS 578 T; experiment: as above; type: cell-based; conditions: Homo sapiens
[39] = tested on: BT-549; experiment: as above; type: cell-based; conditions: Homo sapiens
[40] = tested on: T-47D; experiment: as above; type: cell-based; conditions: Homo sapiens, T47D
[41] = tested on: MDA-MB-468; experiment: as above; type: cell-based; conditions: Homo sapiens
[42] = tested on: NCI 60-cell line panel (full panel); experiment: NCI-60 SRB growth inhibition, full panel mean / MG-MID; type: cell-based, human
[43] = read-out: percent growth inhibition

COc1ccc(CNc2cccc(C(=O)/C=C/c3cccnc3)c2)cc1OC [Compound 5c, (E)-1–(3-((3,4-dimethoxybenzyl)amino)phenyl)-3-(pyridin-3-yl)prop-2-en-1-one]
GI50 [1]: 2.55 µM
inhibition at 10 µM [1, 43]: 87.1%
GI50 ([2]; HL-60): 2.78 µM
inhibition at 10 µM ([2]; HL-60, read-out: percent growth inhibition): 59.6%
GI50 ([3]; K562): 2.71 µM
inhibition at 10 µM ([3]; K562, read-out: percent growth inhibition): 89%
GI50 ([4]; MOLT-4): 2.95 µM
inhibition at 10 µM ([4]; MOLT-4, read-out: percent growth inhibition): 38.9%
GI50 [5]: 2.48 µM
inhibition at 10 µM [5, 43]: 92%
GI50 ([6]; A549): 17.2 µM
inhibition at 10 µM ([6]; A549, read-out: percent growth inhibition): 17.6%
GI50 [7]: 10.4 µM
inhibition at 10 µM [7, 43]: 62.3%
GI50 ([8]; HOP-62): 12.2 µM
inhibition at 10 µM ([8]; HOP-62, read-out: percent growth inhibition): 30%
GI50 ([9]; HOP-92): 11 µM
inhibition at 10 µM ([9]; HOP-92, read-out: percent growth inhibition): 36.8%
GI50 ([10]; NCI-H226): 14.7 µM
inhibition at 10 µM ([10]; NCI-H226, read-out: percent growth inhibition): 19.7%
GI50 ([11]; NCI-H522): 13.6 µM
inhibition at 10 µM ([11]; NCI-H522, read-out: percent growth inhibition): 138%
GI50 ([12]; COLO 205): 16.5 µM
inhibition at 10 µM ([12]; COLO 205, read-out: percent growth inhibition): 84.7%
GI50 ([13]; HCC 2998): 2.04 µM
inhibition at 10 µM ([13]; HCC 2998, read-out: percent growth inhibition): 75.8%
GI50 ([14]; HCT-116, HCT-116, five-dose screening): 1.94 µM
inhibition at 10 µM ([14]; HCT-116, read-out: percent growth inhibition): 183%
GI50 ([15]; HCT-15): 2.01 µM
inhibition at 10 µM ([15]; HCT-15, read-out: percent growth inhibition): 134%
GI50 ([16]; KM12): 1.99 µM
inhibition at 10 µM ([16]; KM12, read-out: percent growth inhibition): 165%
GI50 ([17]; SF-268): 5.86 µM
inhibition at 10 µM ([17]; SF-268, read-out: percent growth inhibition): 40.4%
GI50 ([18]; SF-539): 12.4 µM
inhibition at 10 µM ([18]; SF-539, read-out: percent growth inhibition): 162%
GI50 ([19]; SNB-19): 9.49 µM
inhibition at 10 µM ([19]; SNB-19, read-out: percent growth inhibition): 41.3%
GI50 ([20]; U-251): 3.62 µM
inhibition at 10 µM ([20]; U-251, read-out: percent growth inhibition): 124%
GI50 [21]: 1.76 µM
inhibition at 10 µM [21, 43]: 192%
GI50 [22]: 12.5 µM
inhibition at 10 µM [22, 43]: 101%
GI50 ([23]; MDA-MB-435): 2.46 µM
inhibition at 10 µM ([23]; MDA-MB-435, read-out: percent growth inhibition): 84.7%
GI50 ([24]; SK-MEL-2): 15.1 µM
inhibition at 10 µM ([24]; SK-MEL-2, read-out: percent growth inhibition): 23.5%
GI50 ([25]; SK-MEL-28): 5.22 µM
inhibition at 10 µM ([25]; SK-MEL-28, read-out: percent growth inhibition): 98.4%
GI50 ([26]; SK-MEL-5): 5.86 µM
inhibition at 10 µM ([26]; SK-MEL-5, read-out: percent growth inhibition): 103%
GI50 ([27]; IGROV-1): 11 µM
inhibition at 10 µM ([27]; IGROV-1, read-out: percent growth inhibition): 84.3%
GI50 ([28]; OVCAR-3): 2.74 µM
inhibition at 10 µM ([28]; OVCAR-3, read-out: percent growth inhibition): 107%
GI50 ([29]; OVCAR-4): 9.31 µM
inhibition at 10 µM ([29]; OVCAR-4, read-out: percent growth inhibition): 80.1%
GI50 ([30]; OVCAR-5): 13.9 µM
inhibition at 10 µM ([30]; OVCAR-5, read-out: percent growth inhibition): 68.4%
GI50 ([31]; OVCAR-8): 4.01 µM
inhibition at 10 µM ([31]; OVCAR-8, read-out: percent growth inhibition): 85.1%
GI50 ([32]; A498): 13.6 µM
inhibition at 10 µM ([32]; A498, read-out: percent growth inhibition): 20%
GI50 ([33]; CAKI-1): 10.2 µM
inhibition at 10 µM ([33]; CAKI-1, read-out: percent growth inhibition): 39.8%
GI50 ([34]; RXF 393): 10.8 µM
inhibition at 10 µM ([34]; RXF 393, read-out: percent growth inhibition): 64.9%
GI50 ([35]; PC-3): 8 µM
inhibition at 10 µM ([35]; PC-3, read-out: percent growth inhibition): 89%
GI50 ([36]; DU-145): 12.4 µM
inhibition at 10 µM ([36]; DU-145, read-out: percent growth inhibition): 60.5%
GI50 ([37]; MCF7): 1.89 µM
inhibition at 10 µM ([37]; MCF7, read-out: percent growth inhibition): 186%
GI50 [38]: 14.3 µM
inhibition at 10 µM [38, 43]: 98.3%
GI50 ([39]; BT-549): 2.57 µM
inhibition at 10 µM ([39]; BT-549, read-out: percent growth inhibition): 135%
GI50 [40]: 10 µM
inhibition at 10 µM [40, 43]: 105%
GI50 ([41]; MDA-MB-468): 4.06 µM
inhibition at 10 µM ([41]; MDA-MB-468, read-out: percent growth inhibition): 157%
GI50 ([42]; Homo sapiens, 60 cell, read-out: Full panel GI50 mean): 7.67 µM
Full panel Mean GI % ([42]; mean over NCI-60 panel, single dose 10 µM): 87.75%
